Experimental data taken from patent US20100190724A1, “USE OF MELANOCYTE-STIMULATING HORMONE RELEASE-INHIBITING FACTOR AS A THERAPEUTIC AGENT IN THE TREATMENT OF PSEUDOMONAS AERUGINOSA INFECTION” (priority 2007, published 2010).
Where a SMILES comes first, the peptide text is derived from it.

What was measured:
HIV-1IIB = assay: HIV-1 antiviral assay (CPE reduction, MTS) in CEM-SS cells; type: cell-based; conditions: peptide 10 micrograms per ml, 6 days post-infection
CEM-SS cells = assay: Cytotoxicity (MTS cell viability) in HIV-1 experiments; conditions: peptide 10 micrograms per ml, MTS
MRC-5 cells = assay: Cytotoxicity testing in MRC-5 cells (CellTiter 96); type: cell-based, human; conditions: 6 days incubation
Protocol: (§1) The following day, peptide was added and tested in duplicates.

IL-5 = assay: Th1/Th2 cytokine profiling assay: IL-5; type: cell-based, Balb/c mice; conditions: Ovalbumin-restimulated spleen cells; peptide 10 micrograms per ml; 72 hours
RAW 264.7 cells = assay: Phagocytosis assay (Fluorescein-labeled Escherichia coli, flow cytometry); type: cell-based, mouse; conditions: peptide 10 micrograms per ml, 30 min preincubation, 60 min ingestion
[1] = Cytotoxicity testing in MRC-5 cells (CellTiter 96); type: cell-based, human; conditions: human, 6 days incubation, read-out: % Cell viability
Protocol: as §1

A549 cells [2] = assay: Propidium iodide cell cycle assay; type: cell-based, human; conditions: peptide 10 micrograms per ml, 24 hours, FACS
IL-2 = assay: Th1/Th2 cytokine profiling assay: IL-2; type: cell-based, Balb/c mice; conditions: Ovalbumin-restimulated spleen cells; peptide 10 micrograms per ml; 72 hours
HCMV strain AD169 = assay: HCMV plaque reduction assay in MRC-5 cells; type: cell-based, human cytomegalovirus; conditions: peptide 10 micrograms per ml, 7-10 days
Text: Ganciclovir was used as positive control.

[3] = system: Human Peripheral Blood Mononuclear Cells (PBMC); assay: B cell proliferation assay (SAC plus Interleukin-2, 3H-thymidine); type: cell-based; conditions: peptide 10 micrograms per ml, 3H-thymidine incorporation
TNF-a = assay: Th1/Th2 cytokine profiling assay: TNF-a; type: cell-based, Balb/c mice; conditions: Ovalbumin-restimulated spleen cells; peptide 10 micrograms per ml; 72 hours
A549 cells [4] = assay: Apoptosis prevention assay (C2 ceramide, Annexin-5); type: cell-based, human; conditions: 30 min pretreatment with peptide 10 micrograms per ml, then C2 ceramide
HUVEC = assay: Endothelial tube formation assay; type: cell-based, human; conditions: peptide 10 micrograms per ml, 20 hours
Text: Positive control was vehicle only.

IFNγ = assay: Th1/Th2 cytokine profiling assay: IFNγ; type: cell-based, Balb/c mice; conditions: Ovalbumin-restimulated spleen cells; peptide 10 micrograms per ml; 72 hours
Streptococcus pneumoniae = type: cell-based; conditions: 5 micrograms per ml
TNF alpha = TNF alpha production assay in LPS-stimulated macrophages (ELISA); type: cell-based, human; conditions: PBMC-derived macrophages, peptide 10 micrograms per ml, lipopolysaccharide 200 ng/ml, overnight
Text: Not stimulated macrophages served as negative background control.

IL-4 = assay: Th1/Th2 cytokine profiling assay: IL-4; type: cell-based, Balb/c mice; conditions: Ovalbumin-restimulated spleen cells; peptide 10 micrograms per ml; 72 hours
[5] = Cytotoxicity (dye uptake cell viability) in HBV assay; type: cell-based; conditions: human, HepG2-2.2.15 cells, peptide 10 micrograms per ml
Protocol: (§2) HepG2-2.2.15 cells were plated in 96-well microtiter plates. After 16-24 hours the confluent monolayer of HepG2-2.2.15 cells was washed and the medium was replaced with complete medium containing test peptide—10 micrograms per ml—in duplicate. Lamivudine (3TC) was used as the positive control, while media alone was added to the cells as a negative control (virus control). Three days later the culture medium was replaced with fresh medium containing the peptide. Six days following the initial administration of the peptide, the cell culture supernatants was collected, treated with pronase and DNAse and then used in a real-time quantitative TaqMan PCR assay. The PCR-amplified HBV DNA was detected in real-time by monitoring increases in fluorescence signals that result from the exonucleolytic degradation of a quenched fluorescence probe molecule that hybridizes to the amplified HBV DNA. For each PCR amplification, a standard curve was simultaneously generated using dilutions of purified HBV DNA. Antiviral activity was calculated from the reduction in HBV DNA levels (% virus control). A novel dye uptake assay was then employed to measure cell viability, which is used to calculate toxicity (% cell control).

Pseudomonas aeruginosa = type: cell-based; conditions: 5 micrograms per ml
[6] = system: hepatitis B virus (HBV) ayw strain; assay: HBV replication assay in HepG2-2.2.15 cells (TaqMan PCR of secreted HBV DNA); type: cell-based; conditions: peptide 10 micrograms per ml, six days, HBV DNA by TaqMan PCR
Protocol: HepG2-2.2.15 is a stable cell line containing the hepatitis B virus (HBV) ayw strain genome (ATCC Cat. No. CRL-11997). Antiviral compounds blocking any late step of viral replication such as transcription, translation, pregenome encapsidation, reverse transcription, particle assembly and release can be identified and characterized using this cell line.
as §2, with “Lamivudine (3TC) was used as the positive control, while media alone was added to the cells as a negative control (virus control).” left out, “A novel dye uptake assay was then employed to measure cell viability, which is used to calculate toxicity (% cell control).” left out

[7] = system: Human Peripheral Blood Mononuclear Cells (PBMC); assay: T cell proliferation assay (PHA, 3H-thymidine); type: cell-based; conditions: peptide 10 micrograms per ml, 3H-thymidine incorporation
[8] = Cytotoxicity (MTS cell viability) in HIV-1 experiments; conditions: human, CEM-SS cells
MRSA = type: cell-based, Staphylococcus Aureus; conditions: 5 micrograms per ml
A549 cells [9] = assay: Apoptosis induction assay (Annexin-5); type: cell-based, human; conditions: peptide 10 micrograms per ml, 24 hours
[10] = system: Primary Human endothelial cells (HUVEC); assay: Endothelial cell migration assay; type: cell-based; conditions: peptide 10 micrograms per ml, 22 hours

## Cc1cn([C@H]2C[C@H](N=[N+]=[N-])[C@@H](CO)O2)c(=O)[nH]c1=O [AZT, reference compound]
HIV-1IIB
  % CPE reduction in HIV-1 infected CEM-SS cells: 99%
CEM-SS cells
  % Cell viability: 97%

## Nc1nc(O)c2ncn(COC(CO)CO)c2n1 [Ganciclovir, reference compound]
MRC-5 cells
  % Cell viability: 100%

## CC(C)C[C@H](NC(=O)[C@@H]1CCCN1)C(=O)NCC(N)=O [MSHRIF, Pro-Leu-Gly-NH2] (H-Pro-Leu-Gly-NH2)
IL-5
  IL-5 spleen cells; TH2 response (% of control): 56.7 % of control
RAW 264.7 cells
  % of control phagocytosis: 145.7%
HIV-1IIB
  % CPE reduction in HIV-1 infected CEM-SS cells: 0.0%
[1]
  viability at 144 h: 100%
A549 cells [2]
  Cell cycle analysis G0/G1: 56.9
  Cell cycle analysis G2/M: 11.7
  Cell cycle analysis S: 31.4
IL-2
  IL-2 spleen cells (% of control): 0.0 % of control
HCMV strain AD169
  % plaque reduction: 0.0%
[3]
  % of SAC/IL2 induced control: 79.2%
TNF-a
  TNF-a spleen cells; TH1 response (% of control): 81.4 % of control
A549 cells [4]
  % prevention of ceramide induced apoptosis: 0.0%
HUVEC
  % inhibition of tube formation: 9.0%
IFNγ
  IFNγ spleen cells; TH1 response (% of control): 88.0 % of control
Streptococcus pneumoniae
  % inhibition: 0.0%
TNF alpha
  % of LPS induction: 88.2%
IL-4
  IL-4 spleen cells; TH2 response (% of control): 0.0 % of control
[5]
  viability at 144 h, 10 micrograms per ml: 100%
Pseudomonas aeruginosa
  % inhibition: 100.0%
[6]
  % inhibition of HBV replication in HEP G2 cells: 10.9%
[7]
  % of PHA induced control: 80.8%
[8]
  viability at 10 micrograms per ml: 98.4%
MRSA
  % inhibition: 0.0%
A549 cells [9]
  % of induction: 0.9%
[10]
  % inhibition of migration: −8%
